The results in this text go back to US6949542B2, “Dihydro-benzo[b][1,4]diazepin-2-one derivatives” (Hoffman-La Roche Inc., priority 2002, dated 2005).

Turning to `Cc1cc(-c2cccc(C3=Nc4ccccc4NC(=O)C3)c2)ccn1` [Example 71, 4-[3-(2-Methyl-pyridin-4-yl)-phenyl]-1,3-dihydro-benzo[b][1,4]diazepin-2-one], the melting point was 192 °C.

Molecule `Cc1cc(-c2cccc(C3=Nc4ccc(Cl)cc4NC(=O)C3)c2)ccn1` [Example 74, 8-Chloro-4-[3-(2-methyl-pyridin-4-yl)-phenyl]-1,3-dihydro-benzo[b][1,4]diazepin-2-one] had a melting point of 215 °C. As for `Cc1cc(-c2cccc(C3=Nc4cc(NCC(C)C)c(Cl)cc4NC(=O)C3)c2)ccn1` [Example 79, 8-Chloro-7-isobutylamino-4-[3-(2-methyl-pyridin-4-yl)-phenyl]-1,3-dihydro-benzo[b][1,4]diazepin-2-one], the melting point worked out at 220 °C. In the case of `CCCN(C)c1cc2c(cc1C(F)(F)F)NC(=O)CC(c1cccc(-c3ccncc3)c1)=N2` [Example 81, 7-(Methyl-propyl-amino)-4-(3-pyridin-4-yl-phenyl)-8-trifluoromethyl-1,3-dihydro-benzo[b][1,4]diazepin-2-one], the melting point amounted to 192 °C.

As to `Cc1cc(-c2cccc(C3=Nc4cc(Cl)c(C(F)(F)F)cc4NC(=O)C3)c2)ccn1` [Example 82, 7-Chloro-4-[3-(2-methyl-pyridin-4-yl)-phenyl]-8-trifluoromethyl-1,3-dihydro benzo[b][1,4]diazepin-2-one], the melting point came out at 221 °C.

`CN(C)c1cc2c(cc1C(F)(F)F)NC(=O)CC(c1cccc(-c3cncnc3)c1)=N2` [Example 85, 7-Dimethylamino-4-(3-pyrimidin-5-yl-phenyl)-8-trifluoromethyl-1,3-dihydro-benzo[b][1,4]diazepin-2-one] registered a melting point of 200 °C. To `Cc1cc2c(cc1Cl)NC(=O)CC(c1cccc(-c3cnccn3)c1)=N2` [Example 86, 8-Chloro-7-methyl-4-(3-pyrazin-2-yl-phenyl)-1,3-dihydro-benzo[b][1,4]diazepin-2-one] belongs 232 °C; to `O=C1CC(c2cccc(-c3cnccn3)c2)=Nc2cc(Cl)c(Cl)cc2N1` [Example 88, 7,8-Dichloro-4-(3-pyrazin-2-yl-phenyl)-1,3-dihydro-benzo[b][1,4]diazepin-2-one], 268 °C; to `O=C1CC(c2cccc(-c3cnccn3)c2)=Nc2ccc(C(F)(F)F)cc2N1` [Example 89, 4-(3-Pyrazin-2-yl-phenyl)-8-trifluoromethyl-1,3-dihydro-benzo[b][1,4]diazepin-2-one], 223 °C. The molecule `CN(C)c1cc2c(cc1C(F)(F)F)NC(=O)CC(c1cccc(-c3cnccn3)c1)=N2` [Example 90, 7-Dimethylamino-4-(3-pyrazin-2-yl-phenyl)-8-trifluoromethyl-1,3-dihydro-benzo[b][1,4]diazepin-2-one] gave a melting point of 204 °C. To `O=C1CC(c2cccc(-c3cnccn3)c2)=Nc2cc(Cl)c(C(F)(F)F)cc2N1` [Example 91, 7-Chloro-4-(3-pyrazin-2-yl-phenyl)-8-trifluoromethyl-1,3-dihydro-benzo[b][1,4]diazepin-2-one] belongs 235 °C. As for `O=C1CC(c2cccc(-c3cnccn3)c2)=Nc2ccc(-c3ccccc3F)cc2N1` [Example 92, 8-(2-Fluoro-phenyl)-4-(3-pyrazin-2-yl-phenyl)-1,3-dihydro-benzo[b][1,4]diazepin-2-one], the melting point was found to be 241 °C. Then `Cc1cc2c(cc1C(F)(F)F)N=C(c1cccc(-c3cnccn3)c1)CC(=O)N2` [Example 93, 8-Methyl-4-(3-pyrazin-2-yl-phenyl)-7-trifluoromethyl-1,3-dihydro-benzo[b][1,4]diazepin-2-one], with 216 °C; and `O=C1CC(c2cccc(-c3cncnc3)c2)=Nc2ccc(Cl)cc2N1` [Example 94, 8-Chloro-4-(3-pyrimidin-5-yl-phenyl)-1,3-dihydro-benzo[b][1,4]diazepin-2-one], with 234 °C; and `O=C1CC(c2cccc(-c3cncnc3)c2)=Nc2cc(Cl)c(C(F)(F)F)cc2N1` [Example 95, 7-Chloro-4-(3-pyrimidin-5-yl-phenyl)-8-trifluoromethyl-1,3-dihydro-benzo[b][1,4]diazepin-2-one], with 222 °C. On to `CC(C)CNc1cc2c(cc1Cl)NC(=O)CC(c1cccc(-c3cncnc3)c1)=N2` [Example 96, 8-Chloro-7-isobutylamino-4-(3-pyrimidin-5-yl-phenyl)-1,3-dihydro-benzo[b][1,4]diazepin-2-one], for which the melting point was found to be 241 °C. Then `CCCN(C)c1cc2c(cc1C(F)(F)F)NC(=O)CC(c1cccc(-c3cncnc3)c1)=N2` [Example 99, 7-(Methyl-propyl-amino)-4-(3-pyrimidin-5-yl-phenyl)-8-trifluoromethyl-1,3-dihydro-benzo[b][1,4]diazepin-2-one], with 197 °C; and `O=C1CC(c2cccc(-c3ccncc3)c2)=Nc2cc(C(F)(F)F)c(Cl)cc2N1` [Example 100, 8-Chloro-4-(3-pyridin-4-yl-phenyl)-7-trifluoromethyl-1,3-dihydro-benzo[b][1,4]diazepin-2-one], with 200 °C; and `CCCN(C)c1cc2c(cc1C(F)(F)F)NC(=O)CC(c1cccc(-c3cnccn3)c1)=N2` [Example 102, 7-(Methyl-propyl-amino)-4-(3-pyrazin-2-yl-phenyl)-8-trifluoromethyl-1,3-dihydro-benzo[b][1,4]diazepin-2-one], with 201 °C. `Cc1cc2c(cc1Cl)N=C(c1cccc(-c3cnccn3)c1)CC(=O)N2` [Example 103, 7-Chloro-8-methyl-4-(3-pyrazin-2-yl-phenyl)-1,3-dihydro-benzo[b][1,4]diazepin-2-one] came in with a melting point of 218 °C.

Take `Cc1cc2c(cc1C(F)(F)F)N=C(c1cccc(-c3cncnc3)c1)CC(=O)N2` [Example 106, 8-Methyl-4-(3-pyrimidin-5-yl-phenyl)-7-trifluoromethyl-1,3-dihydro-benzo[b][1,4]diazepin-2-one]: the melting point was found to be 238 °C. The molecule `O=C1CC(c2cccc(-c3ccccn3)c2)=Nc2cc(C(F)(F)F)c(Cl)cc2N1` [Example 107, 8-Chloro-4-(3-pyridin-2-yl-phenyl)-7-trifluoromethyl-1,3-dihydro-benzo[b][1,4]diazepin-2-one] yielded a melting point of 208 °C.

Regarding `Cc1cc(-c2cccc(C3=Nc4ccc(-n5cccc5)cc4NC(=O)C3)c2)ccn1` [Example 108, 4-[3-(2-Methyl-pyridin-4-yl)-phenyl]-8-pyrrol-1-yl-1,3-dihydro-benzo[b][1,4]diazepin-2-one], the melting point amounted to 206 °C. On to `O=C1CC(c2cccc(-c3cnccn3)c2)=Nc2cc(C(F)(F)F)c(Cl)cc2N1` [Example 110, 8-Chloro-4-(3-pyrazin-2-yl-phenyl)-7-trifluoromethyl-1,3-dihydro-benzo[b][1,4]diazepin-2-one], for which the melting point was determined as 214 °C. `O=C1CC(c2cccc(-c3cncnc3)c2)=Nc2cc(C(F)(F)F)c(Cl)cc2N1` [Example 111, 8-Chloro-4-(3-pyrimidin-5-yl-phenyl)-7-trifluoromethyl-1,3-dihydro-benzo[b][1,4]diazepin-2-one] registered a melting point of 217 °C. Consider `O=C1CC(c2cccc(-c3cnccn3)c2)=Nc2cc(OCC(F)(F)F)c(C(F)(F)F)cc2N1` [Example 112, 4-(3-Pyrazin-2-yl-phenyl)-7-(2,2,2-trifluoro-ethoxy)-8-trifluoromethyl-1,3-dihydro-benzo[b][1,4]diazepin-2-one], for which the melting point stood at 242 °C. Take `O=C1CC(c2cccc(-c3cccnc3)c2)=Nc2cc(C(F)(F)F)c(Cl)cc2N1` [Example 113, 8-Chloro-4-(3-pyridin-3-yl-phenyl)-7-trifluoromethyl-1,3-dihydro-benzo[b][1,4]diazepin-2-one]: the melting point amounted to 208 °C. For `Cc1cc(-c2cccc(C3=Nc4cc(OCC(F)(F)F)c(C(F)(F)F)cc4NC(=O)C3)c2)ccn1` [Example 114, 4-[3-(2-Methyl-pyridin-4-yl)-phenyl]-7-(2,2,2-trifluoro-ethoxy)-8-trifluoromethyl-1,3-dihydro-benzo[b][1,4]diazepin-2-one], the melting point is 223 °C. Molecule `Cc1cc(-c2cccc(C3=Nc4cc(F)c(F)cc4NC(=O)C3)c2)ccn1` [Example 115, 7,8-Difluoro-4-[3-(2-methyl-pyridin-4-yl)-phenyl]-1,3-dihydro-benzo[b][1,4]diazepin-2-one] registered a melting point of 217 °C. On to `O=C1CC(c2cccc(-c3cccnc3)c2)=Nc2cc(F)c(F)cc2N1` [Example 116, 7,8-Difluoro-4-(3-pyridin-3-yl-phenyl)-1,3-dihydro-benzo[b][1,4]diazepin-2-one], for which the melting point came to 246 °C. Consider `Cc1cc(-c2cccc(C3=Nc4ccc(Cl)cc4NC(=O)C3)c2)cc(C)n1` [Example 118, 8-Chloro-4-[3-(2,6-dimethyl-pyridin-4-yl)-phenyl]-1,3-dihydro-benzo[b][1,4]diazepin-2-one], for which the melting point amounted to 236 °C. Regarding `Cc1cc(-c2cccc(C3=Nc4cc(F)c(F)cc4NC(=O)C3)c2)cc(C)n1` [Example 126, 7,8-Difluoro-4-[3-(2,6-dimethyl-pyridin-4-yl)-phenyl]-1,3-dihydro-benzo[b][1,4]diazepin-2-one], the melting point is 252 °C.

`Cc1cc(-c2cccc(C3=Nc4cc(C(F)(F)F)c(Cl)cc4NC(=O)C3)c2)cc(C)n1` [Example 128, 8-Chloro-4-[3-(2,6-dimethyl-pyridin-4-yl)-phenyl]-7-trifluoromethyl-1,3-dihydro benzo[b][1,4]diazepin-2-one] displayed a melting point of 207 °C. `Cc1cncc(-c2cccc(C3=Nc4cc(C(F)(F)F)c(C)cc4NC(=O)C3)c2)n1` [Example 130, 8-Methyl-4-[3-(6-methyl-pyrazin-2-yl)-phenyl]-7-trifluoromethyl-1,3-dihydro-benzo[b][1,4]diazepin-2-one] showed a melting point of 211 °C. To `Cc1cncc(-c2cccc(C3=Nc4cc(C)c(Cl)cc4NC(=O)C3)c2)n1` [Example 131, 8-Chloro-7-methyl-4-[3-(6-methyl-pyrazin-2-yl)-phenyl]-1,3-dihydro-benzo[b][1,4]diazepin-2-one] belongs 235 °C.

The melting point is the temperature of the solid-liquid transition.
